From patent publication US12514847B2, “Oxathiazin_dioxide for treating, preventing, inhibiting or reducing cytokine release” (Geistlich Pharma AG, priority 2019, dated 2026)

How the values were obtained:
[1] = test system: Human CD19 specific CAR-T effector cells; assay: CD19 CAR-T co-culture assay with Raji cells: cytokine release; format: cell-based
Method: (§1) Human CD19 specific CAR-T effector cells from a donor were co-cultured with Raji, a human CD19 expressing target B cell line at different effector to target cell ratios of 5:1, 10:1, and 20:1 in the presence of C-2250. Co-culture was performed for 6 hours or 24 hours at 37° C., 5% CO2 prior to harvesting cells for CAR-T mediated target cell lysis or tissue culture supernatant for cytokine analysis. C-2250 was used at 500, 1000, and 1500 μM concentrations and was allowed to pre-incubate with CAR-T cells prior to addition of tumor target cells.

[2] = test system: primary human peripheral blood mononuclear cells (PBMCs); assay: LPS stimulated human PBMC cytokine release; format: cell-based; conditions: LPS 1 ng/ml, 48 hours; C-2250 500, 1000, 1500 μM; five donors
Method: The ability of C-2250 to suppress in vitro cytokine release from primary human peripheral blood mononuclear cells (PBMCs) was assessed. Lipopolysaccharide (LPS) inhibition by C-2250 was determined. PBMCs from five individual, normal healthy human volunteers were incubated with C-2250, followed by LPS stimulation for 48 hours. Detection of three different cytokines was performed using an antibody capture bead-based kit and flow cytometric analysis.
Cryopreserved PBMCs from five healthy human donors (IQ Biosciences, Catalog #I QB-PBMC103) were thawed and cultured in RPMI 1640 medium (Gibco RPMI-1640 Medium (ATCC, Catalog #30-2001) supplemented with 10% FCS, 2 mM L-glutamine, 100 IU/mL penicillin, 100 μg/mL streptomycin, 1 mM sodium pyruvate (all from ThermoFisher) with viability >85% as determined automated cell counter (Countess II FL Automated Cell Counter; ThermoFisher; Catalog #AMQAF1000) prior to experiments. For C-2250, a 73 mM stock was prepared in sterile Lactated Ringer's Solution less than two hours prior to the start of the assay by adding 100 mg C-2250 into 10 mL Lactated Ringer's Solution. Prior to use in the assay, the pH of the solution was adjusted to 7.3. 100 μl of PBMCs at 1.0×10^7 cells/mL were washed and re-suspended in tissue culture medium containing a fixed concentration (1 ng/ml) of LPS from E. coli, serotype 0111:B4. LPS stimulation was performed for 48 hours at 37° C., 5% CO2 prior to harvesting tissue culture supernatant for cytokine analysis. C-2250 was used at 500, 1000, and 1500 μM concentrations.
Each symbol represents the mean value of triplicate analysis of a single donor. Each bar per treatment group represents the mean value of all donors where the triplicate value of each donor is averaged.

[3] = Solubility in water / isotonicity; format: physicochemical
Human PBMCs = assay: PBMC/Ramos co-culture with BLINCYTO: cytokine release; format: cell-based
Method: (§2) Inhibition of cytokine release by C-2250 in the presence of a bispecific CD19 T cell engager was assessed. Human PBMCs from ten donors were co-cultured with Ramos cells (a human CD19 expressing B cell line) in the presence of blinatumomab (BLINCYTO®), a T cell bispecific therapeutic, and C-2250 was added.
(§3) Co-culture was performed for 24 hours at 37° C., 5% CO2, prior to harvesting cells or tissue culture supernatant for analysis. C-2250 was used at 500, 1000, and 1500 μM concentrations and was allowed to pre-incubate with T cells prior to addition of BLINCYTO®.

[4] = test system: Raji, a human CD19 expressing target B cell line; assay: CD19 CAR-T co-culture assay with Raji cells: CAR-T mediated target cell lysis; format: cell-based; conditions: E:T ratios 5:1, 10:1, 20:1
Method: as §1
FIGS. 2A-2C show the results of CD19 CAR-T co-culture assay with CD-19 tumor cells (Raji) at 6 hours, CAR-T mediated tumor target cell in the present of increasing concentrations of C-2250 are shown (E:T ratios of 5:1, 10:1, and 20:1 are shown in FIGS. 2A, 2B, and 2C, respectively). FIGS. 3A-3C show the results of CD19 CAR-T co-culture assay with CD-19 tumor cells (Raji) at 24 hours, CAR-T mediated tumor target cell in the present of increasing concentrations of C-2250 are shown (E:T ratios of 5:1, 10:1, and 20:1 are shown in FIGS. 3A, 3B, and 3C, respectively).

[5] = test system: Ramos cells (a human CD19 expressing B cell line); assay: PBMC/Ramos co-culture with BLINCYTO: target cell cytotoxicity; format: cell-based; conditions: 24 hours
Method: as §2, §3

[6] = test system: CAR T cell-induced severe or life-threatening CRS; conditions: two cohorts; adults and pediatric patients 2 years and older; cited from earlier work
[7] = E:T ratios 5:1, 10:1, 20:1, C-2250 500, 1000, 1500 μM
[8] = C-2250 500, 1000, 1500 μM with BLINCYTO 100 ng/ml, 24 hours

| Compound | cytokine release (including IL-1β, IL-6, TNF-α, and IFN-γ cytokines) ([1]; CAR-T/Raji co-culture, summary statement) | CD19 CAR-T cell mediated IFN-γ cytokine release [1, 7] | CD19 CAR-T cell mediated IL-2 cytokine release [1, 7] | CD19 CAR-T cell mediated TNF-α cytokine release [1, 7] | inhibition of IL-1β cytokine release [2] | inhibition of IL-6 cytokine release [2] | inhibition of TNF-α cytokine release [2] | concentration of isotonic solution [3] | solubility in water ([3]; no PVP necessary) | BLINCYTO T-cell mediated IFN-γ cytokine release (Human PBMCs; [8]) | BLINCYTO T-cell mediated IL-1β cytokine release (Human PBMCs; [8]) | BLINCYTO T-cell mediated IL-2 cytokine release (Human PBMCs; [8]) | BLINCYTO T-cell mediated IL-6 cytokine release (Human PBMCs; [8]) | BLINCYTO T-cell mediated TNF-α cytokine release (Human PBMCs; [8]) | release of all of the tested cytokines (Human PBMCs; with BLINCYTO, summary statement) | CD19 CAR-T mediated CD19+ tumor target cell cytotoxicity ([4]; 6 hours) | CD19 CAR-T mediated CD19+ tumor target cell cytotoxicity ([4]; 24 hours) | BLINCYTO mediated CD19+ tumor target cell cytotoxicity ([5]; C-2250 500, 1000, 1500 μM with BLINCYTO 100 ng/ml) | tumor target cytotoxicity in the absence of BLINCYTO ([5]; no BLINCYTO, PBMC/Ramos co-culture) | response rates [6] |
| --- | --- | --- | --- | --- | --- | --- | --- | --- | --- | --- | --- | --- | --- | --- | --- | --- | --- | --- | --- | --- |
| O=S1(=O)CCOCN1 [C-2250, Tetrahydro1,4,5-oxathiazin-4-dioxide] | shuts down | reduces | reduces | reduces | dose-dependent inhibition | dose-dependent inhibition | dose-dependent inhibition | 3.2% | very soluble | reduced | reduced | reduced | reduced | reduced | reduced | does not abrograte | does not abrograte | did not reduce | increased |  |
| tocilizumab: monoclonal antibody blocking the interleukin-6 (IL-6) receptor |  |  |  |  |  |  |  |  |  |  |  |  |  |  |  |  |  |  |  | 53%-69% |
